Test results: ChEMBL document CHEMBL1140491, “Amino-caprolactam derivatives as gamma-secretase inhibitors” (Bioorg Med Chem Lett, 2007)

Columns and labels:
[1] = Drug level in Tg2576 mouse brain at 200 µmol/kg, po after 3 hrs; conditions: read-out: Drug uptake
[2] = Ratio of drug level in brain to plasma in Tg2576 mouse at 200 mg/kg, po after 3 hrs
[3] = Drug level in Tg2576 mouse plasma at 200 µmol/kg, po after 3 hrs

Row | SMILES | concentration at 3 h [1] [nM] | Kp at 3 h [2] | concentration at 3 h [3] [nM]
1 | COc1ccc(CN([C@@H]2CCCCNC2=O)S(=O)(=O)c2ccc(Cl)cc2)cc1 | 2200 | 7 | 280
2 | CN(C)c1ccc(CN([C@@H]2CCCCNC2=O)S(=O)(=O)c2ccc(Cl)cc2)cc1 | 4200 | 2.8 | 1600
